According to PubChem BioAssay AID328 (DTP/NCI, 2004):
Several values for one entry are separate records, joined by “and”; a condition that tells them apart may be missing. Equal values may be shown once. Inconclusive results and toxic doses are left out. Rule for the calls: active = survival T/C of 150% or more; inactive = T/C below 125% in these data.

Test system: BDF1 mice, P388 leukemia ip, median survival T/C
Assay: NCI In Vivo Anticancer Drug Screen. Data for tumor model P388 Leukemia (intraperitoneal) in B6D2F1 (BDF1) mice
Details: endpoint: median survival time, higher = longer survival
Outline: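 Antitumour effect was judged in vivo: survival in drug-treated mice, normalised to that of vehicle-dosed controls, gives the reported T/C.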

[1] = dose: 100.0 mg/kg/injection, schedule: Q04DX003 (ip), vehicle: saline with Tween-80
[2] = dose: 200.0 mg/kg/injection, schedule: Q04DX003 (ip), vehicle: saline with Tween-80
[3] = dose: 400.0 mg/kg/injection, schedule: Q04DX003 (ip), vehicle: saline with Tween-80
[4] = dose: 100.0 mg/kg/injection, schedule: Q01DX009 (ip), vehicle: saline with Tween-80
[5] = dose: 200.0 mg/kg/injection, schedule: Q01DX009 (ip), vehicle: saline with Tween-80
[6] = dose: 50.0 mg/kg/injection, schedule: Q01DX009 (ip), vehicle: saline with Tween-80
[7] = dose: 12.5 mg/kg/injection, schedule: Q04DX003 (ip), vehicle: saline
[8] = dose: 25.0 mg/kg/injection, schedule: Q04DX003 (ip), vehicle: saline
[9] = dose: 100.0 mg/kg/injection, schedule: Q04DX003 (ip), vehicle: saline
[10] = dose: 200.0 mg/kg/injection, schedule: Q01DX009 (ip), vehicle: saline
[11] = dose: 200.0 mg/kg/injection, schedule: Q04DX003 (ip), vehicle: saline
[12] = dose: 400.0 mg/kg/injection, schedule: Q01DX009 (ip), vehicle: saline
[13] = dose: 400.0 mg/kg/injection, schedule: Q04DX003 (ip), vehicle: saline
[14] = dose: 3.13 mg/kg/injection, schedule: Q01DX009 (ip), vehicle: saline with Tween-80
[15] = dose: 6.25 mg/kg/injection, schedule: Q01DX009 (ip), vehicle: saline with Tween-80
[16] = dose: 12.5 mg/kg/injection, schedule: Q01DX009 (ip), vehicle: saline with Tween-80
[17] = dose: 100.0 mg/kg/injection, schedule: Q04DX003 (ip), vehicle: saline sonified
[18] = dose: 400.0 mg/kg/injection, schedule: Q04DX003 (ip), vehicle: saline sonified

Measured: T/C

Brc1cnn2c1NCC2
inactive: dose: 12.5 mg/kg/injection, schedule: Q01DX009 (ip), vehicle: water 100 % of control | dose: 25.0 mg/kg/injection, schedule: Q01DX009 (ip), vehicle: water 93 % of control | dose: 25.0 mg/kg/injection, schedule: Q04DX003 (ip), vehicle: water 109 % of control and 114 % of control | dose: 50.0 mg/kg/injection, schedule: Q01DX009 (ip), vehicle: water 98 % of control | dose: 50.0 mg/kg/injection, schedule: Q04DX003 (ip), vehicle: water 95 % of control and 118 % of control | dose: 100.0 mg/kg/injection, schedule: Q01DX009 (ip), vehicle: water 97 % of control | dose: 100.0 mg/kg/injection, schedule: Q04DX003 (ip), vehicle: water 95 % of control and 114 % of control | dose: 200.0 mg/kg/injection, schedule: Q01DX009 (ip), vehicle: water 93 % of control | dose: 200.0 mg/kg/injection, schedule: Q04DX003 (ip), vehicle: water 93 % of control

CC(C)C1(C(=O)O)SCCCS1
inactive: dose: 50.0 mg/kg/injection, schedule: Q04DX003 (ip), vehicle: alcohol 115 % of control | dose: 100.0 mg/kg/injection, schedule: Q04DX003 (ip), vehicle: alcohol 115 % of control | dose: 200.0 mg/kg/injection, schedule: Q04DX003 (ip), vehicle: alcohol 105 % of control | dose: 400.0 mg/kg/injection, schedule: Q04DX003 (ip), vehicle: alcohol 105 % of control

CCO/C(N)=N/OS(=O)(=O)c1ccccc1
inactive: [1] 99 % of control | [2] 96 % of control | [3] 98 % of control

Nc1c(Br)cc2c(c1Br)Cc1cc(Br)ccc1-2
inactive: [4] 91 % of control | [5] 87 % of control

O=C(Nc1ccccc1)OCc1ccc(OCc2ccccc2)cc1
inactive: [6] 89 % of control | [4] 122 % of control | [5] 105 % of control

OCC(F)(F)C(F)(F)C(F)(F)C(F)F
inactive: dose: 100.0 mg/kg/injection, schedule: Q01DX009 (ip), vehicle: Klucel (hydroxypropylcellulose) (HPC) 95 % of control | dose: 100.0 mg/kg/injection, schedule: Q04DX003 (ip), vehicle: Klucel (hydroxypropylcellulose) (HPC) 104 % of control | dose: 200.0 mg/kg/injection, schedule: Q01DX009 (ip), vehicle: Klucel (hydroxypropylcellulose) (HPC) 105 % of control | dose: 200.0 mg/kg/injection, schedule: Q04DX003 (ip), vehicle: Klucel (hydroxypropylcellulose) (HPC) 100 % of control | dose: 400.0 mg/kg/injection, schedule: Q01DX009 (ip), vehicle: Klucel (hydroxypropylcellulose) (HPC) 115 % of control | dose: 400.0 mg/kg/injection, schedule: Q04DX003 (ip), vehicle: Klucel (hydroxypropylcellulose) (HPC) 90 % of control

O=C1OC(=O)C2C3C=CC(C4C=CC43)C12 (centres undefined)
inactive: [7] 101 % of control | dose: 25.0 mg/kg/injection, schedule: Q01DX009 (ip), vehicle: saline 97 % of control | [8] 104 % of control | dose: 50.0 mg/kg/injection, schedule: Q01DX009 (ip), vehicle: saline 97 % of control | dose: 50.0 mg/kg/injection, schedule: Q04DX003 (ip), vehicle: saline 111 % of control and 124 % of control | [9] 92 % of control and 106 % of control | [10] 86 % of control | [11] 111 % of control and 119 % of control | [12] 100 % of control | [13] 109 % of control

Cn1cnc([N+](=O)[O-])c1[Se]c1ncnc2c1c(C#N)cn2C1OC(CO)C(O)C1O (centres undefined)
inactive: dose: 6.25 mg/kg/injection, schedule: Q04DX003 (ip), vehicle: saline 93 % of control | [7] 119 % of control | [8] 102 % of control

CN(C)C1CCc2[nH]c3c(F)cc(F)cc3c2C1 (centres undefined)
inactive: [14] 95 % of control | [15] 103 % of control | [16] 101 % of control

O=[N+]([O-])c1ccc(NCCO)c([N+](=O)[O-])c1
inactive: [6] 101 % of control | [4] 107 % of control | [5] 113 % of control

CCC(C(=O)OC)C1CCCCC1 (centres undefined)
inactive: [4] 107 % of control | [1] 108 % of control | [5] 111 % of control | [2] 100 % of control | dose: 400.0 mg/kg/injection, schedule: Q01DX009 (ip), vehicle: saline with Tween-80 103 % of control | [3] 104 % of control

CCCCCCCCC(=O)c1c(OC)oc(C=O)cc1=O
inactive: dose: 2.34 mg/kg/injection, schedule: Q01DX009 (ip), vehicle: Klucel (hydroxypropylcellulose) (HPC) 96 % of control | dose: 4.69 mg/kg/injection, schedule: Q01DX009 (ip), vehicle: Klucel (hydroxypropylcellulose) (HPC) 112 % of control and 118 % of control | dose: 9.38 mg/kg/injection, schedule: Q01DX009 (ip), vehicle: Klucel (hydroxypropylcellulose) (HPC) 104 % of control and 108 % of control | dose: 18.7 mg/kg/injection, schedule: Q01DX009 (ip), vehicle: Klucel (hydroxypropylcellulose) (HPC) 105 % of control | dose: 18.75 mg/kg/injection, schedule: Q01DX009 (ip), vehicle: Klucel (hydroxypropylcellulose) (HPC) 96 % of control | dose: 37.5 mg/kg/injection, schedule: Q01DX009 (ip), vehicle: Klucel (hydroxypropylcellulose) (HPC) 93 % of control and 114 % of control and 121 % of control

CCc1ccc(OS(=O)(=O)c2ccccc2[N+](=O)[O-])cc1
inactive: [17] 100 % of control | dose: 200.0 mg/kg/injection, schedule: Q04DX003 (ip), vehicle: saline sonified 100 % of control | [18] 100 % of control

CN(C)C(=S)N=Nc1c(O)[nH]c2ccccc12
inactive: dose: 1.56 mg/kg/injection, schedule: Q01DX009 (ip), vehicle: saline with Tween-80 109 % of control | [14] 100 % of control | [15] 100 % of control | [16] 92 % of control | dose: 25.0 mg/kg/injection, schedule: Q04DX003 (ip), vehicle: saline with Tween-80 105 % of control | dose: 50.0 mg/kg/injection, schedule: Q04DX003 (ip), vehicle: saline with Tween-80 100 % of control | [17] 90 % of control | [1] 100 % of control | [18] 90 % of control

C[C@]12C=CC(=O)C=C1CC[C@@H]1[C@@H]2[C@@H](O)C[C@@]2(C)[C@H]1CC[C@]2(O)C(=O)COC(=O)CCC1CCCC1
inactive: dose: 25.0 mg/kg/injection, schedule: Q01DX009 (ip), vehicle: saline with Tween-80 113 % of control | [6] 109 % of control | [4] 95 % of control and 100 % of control

O=S(O)OS(=O)O
inactive: dose: 90.0 mg/kg/injection, schedule: Q01DX009 (ip), vehicle: saline 105 % of control | dose: 100.0 mg/kg/injection, schedule: Q01DX009 (ip), vehicle: saline 100 % of control | [9] 96 % of control | dose: 133.0 mg/kg/injection, schedule: Q01DX009 (ip), vehicle: saline 95 % of control and 100 % of control | [10] 100 % of control and 116 % of control | [11] 92 % of control | [12] 104 % of control | [13] 96 % of control

O=C(O)CCc1nc(-c2ccccc2)c(-c2ccccc2)o1
inactive: [6] 100 % of control | [4] 104 % of control | [5] 119 % of control
